From US20220305003A1, “METHODS OF TREATING CANCER WITH AN INHIBITOR OF ZNF827” (CHILDREN'S MEDICAL RESEARCH INSTITUTE, priority 2019, published 2022)

What was measured:
Type in all cases: cell-based
ATR-CHK1 pathway = test: Western blot of ATR downstream effectors (p-CHK1 S345, p-RPA2 S33, pCHK2); conditions: U-2 OS
Method: Protein was extracted from 10^6 cells per sample by vigorous pipetting and incubation at room temperature for 30 minutes in 100 μL of EDTA-free 4× LDS buffer (106 mM Tris-Cl, 141 mM Tris-Base, 40% Glycerol, 2% LDS, 0.075% SERVA Blue G50) supplemented with 2.5% Benzonase® nuclease 25 U/μL (Novagen, Merck Millipore) and 2% beta-mercaptoethanol (Sigma). Following protein extraction, all samples were denatured at 90° C. for 15 minutes before resolving on NuPAGE® Novex® 4-12% Bis-Tris Mini Gels (Invitrogen) with 1×10^5 cells (10 μL) loaded per lane in NuPAGE® MES SDS running buffer (Invitrogen) at 200 V for 50 minutes. Gels were transferred onto a PVDF membrane (Immobilon-P, Millipore) in transfer buffer (190 mM glycine, 25 mM Tris and 10% methanol) at 100 V for 60 minutes. Membranes were stained with Ponceau-S for 30 minutes, de-stained then blocked for 1 hour at room temperature in 5% skim milk dissolved in PBS with 0.1% Tween-20 (PBST) or TBS with 0.1% Tween-20 (TBST) for phosphorylated proteins. Membranes were cut into appropriate segments based on the size markers, with each segment incubated with antibodies for proteins of interest diluted in 0.5% skim milk in PBST/TBST or 5% BSA overnight at 4° C. (Refer to Table 4 for the list of antibodies). Blots were then washed for 3×5 minutes in PBST/TBST followed by incubation for 1 hour at room temperature with appropriate secondary antibodies (See Table 5) diluted 1:5000 in 0.5% skim milk or 5% BSA in PBST/TBST. Blots were washed for 3×5 minutes in PBST/TBST before incubation with SuperSignal West Pico Chemiluminescent Substrate (ThermoFisher Scientific) for 5 minutes at room temperature. Blots were then exposed to a Luminescent Image Analyser (LAS-4000, Fujifilm).
To investigate the precise function of ZNF827 in the ATR pathway, the effect of ZNF827 depletion on the downstream effectors of ATR was examined. To activate ATR, U-2 OS cells were treated with DNA damage and replication stress inducing agents topotecan 2 μg/mL for 24 hours or aphidicolin 1 μM for 20 hours. […] Phosphorylation of CHK2 was not affected by ZNF827 depletion, further supporting that the role of ZNF827 in DNA damage and repair is independent of ATM (FIG. 6d).

U-2 OS cells [1] = test: RPA foci by immunofluorescence in U-2 OS cells
Method: Topotecan and aphidicolin were used in this study. For experiments where they were used to cause replication stress and DNA damage, cells were treated with topotecan 2 μg/mL for either 1 hour or 24 hours, or aphidicolin 1 μM for 20 hours. For replication fork stalling induction in the PCNA colocalisation experiments, cells were treated with aphidicolin 0.4 μM for 6-8 hours. Topotecan and aphidicolin were dissolved in DMSO. DMSO was used as a control.
Cells were transfected using Lipofectamine RNAiMAX transfection reagent (ThermoFisher Scientific) with an siRNA concentration of […]. For transfection in a 75 cm^2flask, 3 mL reduced serum medium Opti-MEM (Gibco) was combined with 15 μL of 20 μM siRNA, mixed gently to cover the surface area of the flask and incubated at room temperature for 5 minutes. 30 μL of Lipofectamine RNAiMAX transfection reagent was then added to the mixture, and mixed and incubated for a further 15 minutes at room temperature. Meanwhile, cells to be transfected were trypsinised, resuspended in DMEM supplemented with 10% FCS, and counted using a Beckman Coulter cell counter. 0.8-1×10^6 cells in DMEM supplemented with 10% FCS were directly pipetted onto the transfection mixture in the flask, and shaken gently to mix. Additional DMEM supplemented with 10% FCS was added to the flask up to a total volume of 15 mL. Cells were harvested 72 hours post-transfection for knockdown validation and subsequent experiments.
Cells cultured on coverslips were fixed in 2% paraformaldehyde in PBS at room temperature for 10 minutes. Cells fixed on coverslips were rinsed with deionised water, and then permeabilised using KCM buffer (120 mM potassium chloride, 20 mM NaCl, 10 mM Tris, pH 7.5, 0.1% Triton X-100) at room temperature for 10 minutes. Coverslips were blocked with antibody diluent buffer (ABDIL—20 mM Tris-Cl, pH 7.5, 2% BSA, 0.2% fish gelatine, 150 mM NaCl, 0.1% Triton X-100, 0.1% sodium azide) containing 100 μg/mL RNase A at room temperature for one hour. […] Quantitated analysis was conducted by automation with CellProfiler (Broad Institute).

U-2 OS cells [2] = test: IncuCyte live cell growth and apoptosis (Nucview488 caspase 3) assay
Method: Considering the effects of ZNF827 depletion on DNA replication and the cell cycle, the impact of ZNF827 on cell proliferation and cell viability was examined. Live cell assays were performed on U-2 OS cells in the IncuCyte® to monitor real-time cell proliferation by confluency and cell viability using Nucview488, a fluorescent reporting dye for caspase 3 activity that allows quantitative measurement of apoptotic activity. Cells were treated with topotecan or DMSO control for the first half of the assay and treatments were removed for the remaining time.
Cells were seeded at 20-30% in a 96-well black plate with clear bottom (3603, Corning) and left to adhere at 37° C. with 10% CO2 for at least 3 hours. The media was aspirated and replaced with phenol red free media supplemented 2 μM Nucview® 488 Caspase-3 substrate (Biotium) and placed into the IncuCyte® for baseline imaging without drug treatment. Topotecan 2 μg/mL or DMSO control was added to the wells, and incubated at 37° C. with 10% CO2 for 1 hour. The media was then aspirated, cells were washed carefully once with warm PBS, and the media replaced with phenol red free media supplemented 2 μM Nucview® 488 Caspase-3 substrate (Biotium). The plate was then placed back into IncuCyte®, imaged immediately post drug treatment, and then every 4 hours for 72 to 84 hours in the phase and green channels. Image analysis was performed with the IncuCyte® Zoom software. Cell growth was measured as % confluency over time, and apoptotic activity as green object confluence/area over time.

[3] = agent alone (topotecan 2 μg/mL 24 hours, aphidicolin 1 μM 20 hours, or siRNA knockdown in unchallenged cells)
[4] = agent alone (topotecan 2 μg/mL 24 hr, or 72 hr siRNA knockdown in unchallenged cells)
[5] = agent alone (topotecan 2 μg/mL 1 hour then removed, or ZNF827 depletion with DMSO)
[6] = agent alone (topotecan 2 μg/mL, or ZNF827 depletion vs scrambled control)

| Compound | phosphorylation of CHK1 S345 (ATR-CHK1 pathway; [3]) | phosphorylation of RPA S33 (ATR-CHK1 pathway; topotecan 2 μg/mL 24 hours) | total nuclear RPA foci (U-2 OS cells [1]; [4]) | cell proliferation (% confluency over time) (U-2 OS cells [2]; [5]) | apoptotic activity (Nucview488 caspase 3) (U-2 OS cells [2]; [6]) | phosphorylation of CHK1 S345 (ATR-CHK1 pathway; 72 hr siRNA knockdown in topotecan- or aphidicolin-treated cells) | phosphorylation of RPA S33 (ATR-CHK1 pathway; 72 hr siRNA knockdown in topotecan-treated cells) | phosphorylation of CHK2 (ATR-CHK1 pathway; 72 hr siRNA knockdown, topotecan 2 μg/mL 24 hr or DMSO) | total nuclear RPA foci (U-2 OS cells [1]; 72 hr siRNA knockdown of ZNF827 in topotecan-treated cells (2 μg/mL, 24 hr)) | cell proliferation (% confluency over time) (U-2 OS cells [2]; ZNF827 depletion in conjunction with topotecan 2 μg/mL) | apoptotic activity (Nucview488 caspase 3) (U-2 OS cells [2]; combination of ZNF827 depletion and topotecan, compared with topotecan alone) |
| --- | --- | --- | --- | --- | --- | --- | --- | --- | --- | --- | --- |
| CC[C@@]1(O)C(=O)OCc2c1cc1n(c2=O)Cc2cc3c(CN(C)C)c(O)ccc3nc2-1 [topotecan] | became phosphorylated at S345 | phosphorylated at S33 | greatly induced RPA foci | effectively inhibited cell growth | much greater apoptotic activity |  |  |  |  |  |  |
| siZNF827: Stealth RNAi siRNA ZNF827HSS135819 duplex oligoribonucleotides (Invitrogen), SEQ ID NO: 12 and 13 (chain 1 GGGCAGUCUUCUGGCUGAGAAAUCA; chain 2 UGAUUUCUCAGCCAGAAGACUGCCC; listed as RNA, further chemistry not given here) | reduced baseline phosphorylation of CHK1 S345 |  | substantially increased the total number of nuclear RPA foci | reduced cell proliferation, surprisingly to a similar efficacy as topotecan | significantly higher apoptotic activity compared to scrambled control | markedly suppressed | markedly suppressed | not affected | did not cause an observable increase in overall RPA foci | completely abrogated cell proliferation | exceeded markedly |
